Test results published in patent US11154536B2, “Pyrazoline-derived compound and its use in a weekly dosage regime against inflammation and pain derived from degenerative joint disease in mammals” (ECUPHAR N.V., priority 2014, dated 2021).

Experiments:
[1] = test system: urate crystal induced acute arthritis in the stifle (femorotibial) joint; experiment: Example 2: urate crystal acute arthritis model in dogs, loading dose plus weekly maintenance doses of E-6087; assay type: in vivo, dog
Description: (§1) The experimental model used in both studies was the same and it consists in the induction of an acute arthritis through the inoculation of an urate crystal suspension in the stifle (femorotibial) joint of dogs. […] Partial or total inhibition of this reaction at a given time point after treatment administration is attributable to its pharmacological effect.
(§2) The reversible urate crystal arthritis model used in next examples has been previously described in the literature [Toutain P. L. et al. J. Vet. Pharmacol. Therap. 24, 43-55, 2001].
(§3) A sodium urate crystal suspension at a concentration of 10 mg·mL-1 was prepared as follows: • Uric acid sodium salt (Sigma) was weighed in a 100 mL graduated flask. • 0.9% NaCl solution was added to a final volume of 100 mL. • The suspension was mixed at room temperature by vortexing for approximately 5 min, by magnetic stirring for 5 min and was then sonicated for approximately 1 h. • The suspension was distributed in 1.5 mL vials and then autoclaved for 2 h at 120° C. • Finally the suspension was mixed by vortexing for 5 min, and sonicated for approximately 1 h.
(§4) The intra-articular injections were performed under general anaesthesia using Propovet multidose at a propofol dose of 6.5 mg.kg-1 by intravenous route without premedication. This induction medication was intended to result in a rapid onset anaesthesia with duration of about 10 minutes of unconsciousness and full recovery within approximately 30 minutes. For most of the dogs, Propovet multidose (half dose) was re-injected to maintain appropriate anaesthesia.
(§5) All urate crystal injections were introduced in the stifle (femorotibial) joint. The intra-articular injection was performed under aseptic conditions using a 30 mm long and 1 mm diameter sterile needle and a 2.5 mL syringe. The joint was checked for successful joint puncture, by synovial aspiration. One millilitre of urate crystal suspension was used for each intra-articular injection.
(§6) The duration of the induced inflammatory process was expected to be approximately 16 to 24 h and the average time of maximum lameness in untreated animals 2 to 3 hours after induction.
(§7) To assess the anti-inflammatory and analgesic effect of the test item, two clinical signs of arthritis were investigated: lameness and pain, respectively. Their intensity was determined using the following scoring systems:
This study was designed to evaluate the effectiveness of two different treatment regimes for E-6087. In both cases it was administered a loading dose, followed by a weekly maintenance dose. […]
According to the institutional ethics committee's recommendations, the first and third inoculations were performed in the right stifle while the second inoculation was performed in the left stifle. On each day of arthritis induction, the anti-inflammatory and analgesic efficacy of treatments was assessed at different time points (just before the inoculation, and 0.5, 1, 2, 3, 4, 6, 9 and 12 hours later).
Two clinical signs of arthritis were assessed by using a scoring system at each time point: visual lameness (whilst standing and walking) and pain at (inoculated stifle) palpation. A combined visual lameness score, determined as the sum of the standing and walking lameness scores, was calculated and finally used for efficacy evaluation. The median, minimal and maximal values for this parameter were determined for each group at each time point. […]

[2] = Example 1: blood/plasma concentrations of E-6087 in treated dogs; assay type: in vivo, dog
Description: (§8) According to the institutional ethics committee's recommendations, the first and third inoculations were done in the right stifle while the second and fourth inoculations were done in the left stifle. On each day of arthritis induction, the anti-inflammatory and analgesic efficacy of treatments was assessed at different time points (just before the inoculation, and 0.5, 1, 2, 3, 4, 6, 9 and 12 hours later). Two clinical signs of arthritis were assessed by using a scoring system at each time point: visual lameness (whilst standing and walking) and pain at (inoculated stifle) palpation. The median, minimal and maximal values for this parameter were determined for each group at each time point. Blood sampling was performed at different time points during the study in dogs of groups I and II in order to determine blood concentrations of E-6087.

[3] = test system: urate crystal induced acute arthritis in the stifle (femorotibial) joint; experiment: Example 1: reversible urate crystal acute arthritis model in dog, E-6087 p.o. 4 mg/kg on D0 and D12; assay type: in vivo
Description: as §1, §2, §3, §4, §5, §6, §7
This study was designed to determine whether the blood levels of E-6087 achieved after one single oral dose of E-6087 at 4 mg/kg in dog, do have some short and/or long-term antiinflammatory and analgesic effects. In addition, a second dose of E-6087 at 4 mg/kg was administered to evaluate the eventual effect derived from the accumulation of the molecule in blood.
The study was performed with seven male Beagle dogs randomly allocated to 3 groups.
During the study, the arthritis induction model was implemented on four occasions to each dog: • In dogs of Group I, on Days 0*, 7, 14** and 21. • In dogs of Group II, on Days 2**, 7, 14** and 21. • In dogs of Group III, on […].
as §8

[4] = test system: naturally occurring osteoarthritis; experiment: Example 3: randomized, blinded multi-centre clinical trial in dogs with naturally occurring osteoarthritis (Clinical Sum Score); assay type: in vivo, dog; settings: loading dose 4 mg/kg then 2 mg/kg weekly; for P of reduction in CSS compared to the Placebo group: tablets
Description: One study (headed as example 3) has been performed to evaluate the efficacy of E-6087 in dogs with naturally occurring osteoarthritis under real field conditions. E-6087 was administered in tablets.
For a dog to be included in the study, the following criteria must be fulfilled: • 1. Owner's consent obtained prior to the start of any study activities. • 2. Age ≥12 months. • 3. Body weight ≥5 kg. • 4. Clinical signs of osteoarthritis for one (with the exception of the spine including spinal joints, cranium, and vertebral column) or more joints for at least 3 weeks. • 5. Confirmation by radiographic evidence of the presence of osteoarthritis in the dog. […] Minimum Clinical Sum Score (CSS) ≥6. If more than one joint was affected by OA, the most severely affected joint (with the exception of the spine) was assessed subsequently for efficacy.
Once included, dogs were randomly assigned to a treatment group. A practitioner was in charge of administering either a Placebo or E-6087 under two different dosage regimes to animals, while another one was in charge of blindly evaluating the progression of clinical signs during a 42-day follow-up.
A Clinical Sum Score (CSS) was used for the assessment of pain and lameness at several time points during the follow-up, including clinical assessments in this order for posture, lameness at walk, lameness at rot and pain at palpation/manipulation. The CSS was the sum of the individual scores.
This study was designed to evaluate the effectiveness of E-6087 under real field conditions. E-6087 was administered at a loading dose of 4 mg/kg followed by weekly maintenance doses of 2 mg/kg The study was designed as a controlled, randomized, blinded, multi-centre clinical trial.
A total of 60 osteoarthritic dogs were included in the E-6087 group and 60 dogs in the Placebo group. All dogs underwent a follow-up period of 42 days, with clinical evaluations of lameness and pain on days 0, 7, 14, 28 and 42. A Clinical Sum Score (CSS) was calculated for the lameness and pain parameters at each time point.

[5] = induction on day D7 after the first 4 mg/kg p.o. dose
[6] = induction two hours after the first 4 mg/kg p.o. dose (Day 0)
[7] = inductions on D14 and D21, after the second 4 mg/kg dose on D12

With NS(=O)(=O)c1ccc(N2N=C(C(F)(F)F)CC2c2ccc(F)cc2F)cc1 (racemic) [E-6087] the “Inflammatory/painful reaction after arthritis induction” value (“Inflammatory/painful reaction” for short) ([1]; Group C, treatment regimen II (8 mg/kg loading, 4 mg/kg weekly), from Day 9 onwards) was “very mild reaction”, the “Inflammatory/painful reaction” value ([1]; Group C, treatment regimen II, induction on Day 0, two hours after the 8 mg/kg loading dose) was “severe inflammatory/painful reaction” and the “Inflammatory/painful reaction” value ([1]; Groups A and B, treatment regimen I (4 mg/kg Days 0 and 1, then 4 mg/kg weekly), inductions on Days 2, 4 and 9) was “mild inflammatory/painful reactions”. The “Inflammatory/painful reaction” value ([1]; Groups A and B, treatment regimen I, inductions on Days 14, 23 and 28) was “none (or very mild) reactions”, the “Adverse reactions related to the administration” value ([1]; Groups A, B and C, throughout the study) was “No adverse reactions” and the “Plasma levels after the second dose” value ([2]; 4 mg/kg p.o. on D0 and D12, blood samples of treated dogs) was “increase in plasma levels”. The “Blood levels 48 hours after administration” value ([2]; 4 mg/kg p.o., 48 hours after administration) was “significant blood levels”, the “Adverse reactions related to the administration” value ([3]; 4 mg/kg p.o. on D0 and D12, throughout the 28-day study) was “No adverse reactions” and the “Persistence of anti-inflammatory/analgesic effect” value ([3]; after the second dose of 4 mg/kg (12 days after the first dose)) was “persisted at least during nine days”. For the same compound, the “Lameness assessment (control of induced lameness)” value (shortened to “Lameness assessment”) [3, 5] was “slightly controlled”, the “Pain assessment (control of induced pain at palpation)” value (“Pain assessment” for short) [3, 5] was “slightly controlled” and the “Lameness assessment” value [3, 6] was “not controlled at all”. The “Pain assessment” value [3, 6] was “not controlled at all”, the “Lameness assessment” value [3, 7] was “absolutely controlled” and the “Pain assessment” value [3, 7] was “absolutely controlled”. The “P of reduction in CSS compared to the Placebo group” value ([4]; day 28, statistically significant) was less than 0.05, the “P of reduction in CSS compared to the Placebo group” value ([4]; day 42, highly significant) was less than 0.01 and the “Mean Clinical Sum Score (CSS)” value ([4]; dropped under the threshold between day 7 and day 14) was less than 6.
